Measured values as given in patent US6403299B1, “DEAH-box proteins” (Aventis Research & Technologies GmbH & Co. KG, priority 1995, dated 2002).
Where two headings read alike, the source gives them in different places.

How the values were obtained:
Assay type in all cases: cell-based, mouse
A20.2J cells [1] = experiment: Proliferation test 2 (3H-thymidine incorporation), A20.2J cells
Procedure: (§1) 4×10^3 cells were pipetted into a volume of 100 μl of Iscove medium in 96-well round-bottom microtiter plates (Nunc). Test substances were applied in twice the concentration starting from the desired test concentration and 100 μl of this solution was pipetted into the cells. The plates were incubated for 48 hours at 37° C. and 10% CO2. The proliferation was determined by radiolabeling the DNA of dividing cells. To do this, after the incubation time 25 μl of ^3H-thymidine (10 μCi/ml; specific activity 29 Ci/mmol; Amersham) was added to each well and the mixture was incubated for a further 16 hours. To evaluate the test, the plates were harvested on glass fiber filters (Pharmacia) by means of a cell harvester (Skatron), unincorporated ^3H-thymidine being collected in separate waste flasks, and only cellular, DNA-bound radioactivity being measured. The filters were heat-sealed in plastic bags and after addition of 10 ml of scintillator (Pharmacia) sealed in counting cassettes for measurement. Measurement was carried out in a beta-counter (beta-plate system 1206 from Wallac). As indicated under Test 1, the alteration in proliferation of the test substances was calculated against the respective positive controls.
(§2) Antiproliferative substances known from the literature were tested at different concentrations (as described in proliferation test 2) for their antiproliferative properties on A20R cells and A20.2J.
(§3) The function of MDR proteins as secretory pumps can be inhibited by calcium channel blockers, which leads to an accumulation of the substance in the cell. Calcium channel blockers known from the literature and also MDR-associated substances were therefore added to both cell lines in order to check whether the resistant line overexpressed MDR proteins.
(§4) The same test mixture was chosen in order to check whether A77 1726 is an MDR-transported molecule. Numbers are % inhibition of proliferation.

A20R cells [2] = experiment: Proliferation test 1 (cell counting, Eosin staining), A20R cells
Procedure: Every 2nd or 3rd day, the cells were passaged in fresh medium to which the same concentration of A77 1726 was added. After culturing for 5 days, growth of the cells and a low dying-off rate (maximum 30% dead cells) was detectable, so the concentration of A77 1726 was increased stepwise. If the proliferation of the cells stagnated, the concentration of the last passage was used. […] 5×10^5 cells were incubated in 5 ml of Iscove medium in 6-well plates (Greiner) for 48 hours at 37° C. and 10% CO2. One well was set up as a positive reference value: for […]: cells in Iscove medium+100 μM A77 1726 Test substances in various concentrations were pipetted into the cells in the remaining wells. After the incubation time, the cells were resuspended in the well, and 100 μl of cell suspension were taken and diluted in 1% strength Eosin solution (1 g of Eosin yellowish from Riedel de Häen dissolved in 100 ml of sterile isotonic saline solution). The cells were counted in a Neubauer counting chamber and the fraction of dead cells (stained by Eosin) determined. The substance-induced alteration of proliferation was calculated relative to the respective positive control.

A20.2J cells [3] = experiment: Proliferation test 1 (cell counting, Eosin staining), A20.2J cells
Procedure: A20.2J is a subline of the mouse B-cell lymphoma A20 (ATCC TIB-208) and described as a fusion line in the ATCC for the cell line LS 102.9 (ATCC HB-97). […] The cells were easy to culture as a nonadherent-growing cell line. 5×10^5 cells were incubated in 5 ml of Iscove medium in 6-well plates (Greiner) for 48 hours at 37° C. and 10% CO2. One well was set up as a positive reference value: for A20.2J: cells in Iscove medium Test substances in various concentrations were pipetted into the cells in the remaining wells. After the incubation time, the cells were resuspended in the well, and 100 μl of cell suspension were taken and diluted in 1% strength Eosin solution (1 g of Eosin yellowish from Riedel de Häen dissolved in 100 ml of sterile isotonic saline solution). The cells were counted in a Neubauer counting chamber and the fraction of dead cells (stained by Eosin) determined. The substance-induced alteration of proliferation was calculated relative to the respective positive control.

A20R cells [4] = experiment: Proliferation test 2 (3H-thymidine incorporation), A20R cells
Procedure: as §1, §2, §3, §4

C/C(O)=C(\C#N)C(=O)Nc1ccc(C(F)(F)F)cc1 [A77 1726]
% inhibition of proliferation (A20.2J cells [1]; A20.2J + 1.6 μM A77 1726, verapamil 0 nM): 16.4% | IC50 (A20R cells [2]; Mus musculus, proliferation test 1, A77 1726 analogs): 130 µM | IC50 (A20.2J cells [3]; Mus musculus, A20/2J, proliferation test 1, A77 1726 analogs, read-out: IC50 value of A20.2J): 2 to 3 µM | IC50 (A20.2J cells [3]; Mus musculus, read-out: 50% inhibition of the proliferation of the cells, A20.2J): 2 µM | % inhibition of proliferation (A20R cells [4]; A20R + 62.5 μM A77 1726, verapamil 0 nM): 10.3% | transport by MDR proteins (A20R cells [4]; A20.2J and A20R cells, with verapamil 0-400 nM): not transported by MDR proteins

Cc1c(-c2ccc(-c3ccccc3F)cc2)nc2ccc(F)cc2c1C(=O)[O-].[Na+] [Brequinar Na^+ salt, brequinar]
cross-resistance of A20R cells (growth behavior) compared with A20.2J (A20R cells [2]): cross-resistance | IC50 (A20R cells [2]; proliferation test 1, brequinar): 50 to 75 µM | IC50 (A20.2J cells [3]; proliferation test 1, brequinar, read-out: IC50 value of A20.2J): 0.2 µM

N.N.[Cl][Pt][Cl] [Cisplatin]
% inhibition of A20.2J (A20.2J cells [1]; 10 μM): 44.7% | % inhibition of A20R (A20R cells [4]; 10 μM): 91.1%

CN(Cc1cnc2nc(N)nc(N)c2n1)c1ccc(C(=O)N[C@@H](CCC(=O)O)C(=O)O)cc1 [Methotrexate]
inhibition at 0.15 µM (A20.2J cells [1]; Mus musculus, A20/2J; 0.15 μM): 75.9% | inhibition at 0.15 µM (A20R cells [4]; Mus musculus; 0.15 μM): 65.2%

COc1c(C)c2c(c(O)c1C/C=C(\C)CCC(=O)O)C(=O)OC2 [Mycophenolic acid]
inhibition at 0.15 µM (A20.2J cells [1]; Mus musculus, A20/2J; 0.15 μM): 89.8% | inhibition at 0.15 µM (A20R cells [4]; Mus musculus; 0.15 μM): 76.8%

COc1cccc2c1C(=O)c1c(O)c3c(c(O)c1C2=O)C[C@@](O)(C(C)=O)C[C@@H]3O[C@H]1C[C@H](N)[C@H](O)[C@H](C)O1 [daunorubicin]
inhibition at 0.3 µM (A20.2J cells [1]; Mus musculus, A20/2J, read-out: % inhibition of proliferation): 10.7% | inhibition at 0.3 µM (A20R cells [4]; Mus musculus, read-out: % inhibition of proliferation): 6.8%

COc1cccc2c1C(=O)c1c(O)c3c(c(O)c1C2=O)C[C@@](O)(C(=O)CO)C[C@@H]3O[C@H]1C[C@H](N)[C@H](O)[C@H](C)O1 [doxorubicin]
inhibition at 0.3 µM (A20.2J cells [1]; Mus musculus, A20/2J; read-out: % inhibition of proliferation): 2.7% | inhibition at 0.3 µM (A20R cells [4]; Mus musculus; read-out: % inhibition of proliferation): 9.1%

Cc1oncc1C(=O)Nc1ccc(C(F)(F)F)cc1 [leflunomide]
times higher leflunomide concentrations tolerated by A20R than by A20.2J (A20R cells [2]; A20R versus A20.2J): 30-40 times | ED50 (A20R cells [2]; murine A20.2J cells resistant to high levels of leflunomide): 130 μ | EC50 (A20R cells [2]; resistant subline A20R, read-out: ED50 (the source's name)): 130 µM | ED50 (A20.2J cells [3]; murine A20.2J cells): 4 μ | EC50 (A20.2J cells [3]; original cell line A20.2J, read-out: ED50 (the source's name)): 4 µM

Cyclosporin A
% inhibition of A20.2J (A20.2J cells [1]; 0.25 μM): 69.9% | % inhibition of A20R (A20R cells [4]; 0.25 μM): 77.5%
